# Data published in PMC7018657, “Molecular Determinants of Substrate Selectivity of a Pneumococcal Rgg-Regulated Peptidase-Containing ABC Transporter” (mBio, 2020).
# Experiments:
# Assay type in all cases: cell-based, Streptococcus pneumoniae R6
# Conditions in all cases: signal sequence (wild type or mutated) fused to BlpI-HiBiT cargo peptide; R6; CDM+; CSP, BlpC and RtgSA-C10 treatment; 3 independent experiments
# BlpAB = test: HiBiT peptide secretion assay, BlpAB+ strain
# Experimental: (§1) FIG 5 RtgAB secretes different GG peptides from ComAB and BlpAB. R6 ComAB^−/BlpAB^−/RtgAB^− and single-transporter-positive ComAB^+, BlpAB^+, and RtgAB^+ strains expressing RtgC-HiBiT (A), RtgG-HiBiT (B), or BlpI-HiBiT (C) were grown in CDM+ to an OD620 of 0.05 and treated with 200 ng/ml CSP, 200 ng/ml BlpC, and 20 nM RtgSA-C10. Samples were taken every 30 min, and extracellular HiBiT signal was quantified. Data are presented as fold change values relative to the ComAB^−/BlpAB^−/RtgAB^− control. Red dashed lines represent fold change = 1 (no difference versus the control). Plots show means ± SEs from 3 independent experiments.
# (§2) Cells were inoculated from starter cultures to an OD620 of 0.005 and grown in CDM+. […] Samples were taken for HiBiT quantification at appropriate time points. […] HiBiT signal was quantified by mixing samples with HiBiT extracellular detection reagent (N2421; Promega) at a 1:1 ratio and reading luminescence with a Synergy HTX plate reader. Samples were also taken for quantification of intracellular peptide; for endpoint assays, they were taken concurrently with the extracellular samples, and for time course assays, they were taken at the last time point. Extracellular peptide was removed from these samples by proteinase K digestion, and then the cells were lysed and HiBiT signal was quantified as described above. […]
# (§3) and read 5 min following reagent addition. […]
# ComAB = test: HiBiT peptide secretion assay, ComAB+ strain
# Experimental: as §1, §2, §3
# RtgAB = test: HiBiT peptide secretion assay, RtgAB+ strain
# Experimental: FIG 3 RtgAB secretes RtgC and RtgG. R6 ComAB^−/BlpAB^−/RtgAB^− and ComAB^−/BlpAB^−/RtgAB^+ strains expressing RtgC-HiBiT (A) or RtgG-HiBiT (B) were grown in CDM+ to an OD620 of 0.05 and treated with 200 ng/ml CSP, 200 ng/ml BlpC, and 20 nM RtgSA-C10. CSP and BlpC were added to allow for comparison with ComAB^+ and BlpAB^+ strains in later experiments. Samples were taken every 30 min, and extracellular HiBiT signal was quantified. Data are presented as fold change values relative to the ComAB^−/BlpAB^−/RtgAB^− control. Red dashed lines represent fold change = 1 (no difference versus the control). […]
# FIG 5 RtgAB secretes different GG peptides from ComAB and BlpAB. […] Samples were taken every 30 min, and extracellular HiBiT signal was quantified. […]
# Cells were inoculated from starter cultures to an OD620 of 0.005 and grown in CDM+. […] Samples were taken for HiBiT quantification at appropriate time points. […] HiBiT signal was quantified by mixing samples with HiBiT extracellular detection reagent (N2421; Promega) at a 1:1 ratio and reading luminescence with a Synergy HTX plate reader. Samples were also taken for quantification of intracellular peptide; for endpoint assays, they were taken concurrently with the extracellular samples, and for time course assays, they were taken at the last time point. […]
# as §3
sequence,measurement,setting,value
MELILPNNYVDLEQEEMMYLDGG [SSRtgG],"secretion through BlpAB, BlpI cargo peptide",BlpAB,preventing its secretion through ComAB and BlpAB
same,"secretion through ComAB, BlpI cargo peptide",ComAB,preventing its secretion through ComAB and BlpAB
same,"secretion through RtgAB, BlpI cargo peptide",RtgAB,promotes secretion of the BlpI cargo peptide through RtgAB
